The text below walks through data of PMC5488875 (Anticancer research, 2017).

Data set [1] concerns MDA-MB-231 cells. In words: ROS assay. The data set is classed as cell-based.
The test system of data set [2] is MDA-MB-231 cells.
Data set [3] relates to HeLa cervical cancer cell line. In words: ROS assay. The data set is classed as cell-based. Particulars: 100 μM (highest concentration).
For data set [4], the system named is HT-29 colon cancer cell line. The data set can be described thus: ROS assay. Format: cell-based. The settings on record: HT-29, 100 μM (highest concentration).

As to acetylwortmannolone [Compound 1], the “ROS (reactive oxygen species fold increase)” value in the data set with MDA-MB-231 cells [1] (MDA-MB-231 cells, concentration not given) stood at 1.58 fold increase. The compound also displayed a concentration for a half-maximal effect (EC50) in the data set with MDA-MB-231 cells [2] of 8.93 µM.

Take `COC[C@H]1OC(=O)c2coc3c2[C@@]1(C)C1=C(C3=O)[C@@H]2CCC(=O)[C@@]2(C)C[C@H]1OC(C)=O` [wortmannin]: the ROS inducing effect entry with MDA-MB-231 cells [1] (MDA-MB-231 breast cancer cells) is on record as “potent ROS inducing agent”; in data set [3], “Strong ROS inducing effect”; in data set [4] it was “Strong ROS inducing effect”. In addition, the “difference in concentration to exhibit the same ROS effect in the other two cancer cell lines” value with MDA-MB-231 cells [1] (MDA-MB-231 vs HeLa and HT-29) came to 1000 x.

What is called EC50 is the concentration that produces a half-maximal response.
